From patent publication US12502379B2, “Ponesimod for avoiding worsening of fatigue-related symptoms in multiple sclerosis patients” (Vanda Pharmaceuticals Inc., priority 2019, dated 2025)

How the values were obtained:
[1] = other S1P receptor modulators, for comparison; cited from earlier work
[2] = ALT increase relative to ULN; format: in vivo, human; details: ponesimod 20 mg arm, teriflunomide 14 mg arm
[3] = test system: adult subjects with relapsing MS; experiment: FSIQ-RMS weekly symptoms score, change from baseline to Week 108; format: in vivo, human; details: FSIQ-RMS weekly symptoms score
Excerpt: In some embodiments, the patient-reported outcome questionnaire is the Fatigue Symptoms and Impact Questionnaire—Relapsing Multiple Sclerosis (FSIQ-RMS) (available from Mapi Research Trust). The FSIQ-RMS is an MS specific 20-item PRO measure that comprises 2 domains: one measuring MS symptoms and one measuring MS-related impacts. See Hudgens S, et al., Development and Validation of the FSIQ-RMS: A New Patient-Reported Questionnaire to Assess Symptoms and Impacts of Fatigue in Relapsing Multiple Sclerosis. Value Health. 2019 April; 22 (4): 453-466. doi: 10.1016/j.jval.2018.11.007. Epub 2019 Feb. 21. PubMed PMID: 30975397. With 7 symptom items and 13 impact items (in 3 impacts subdomains: physical, cognitive and emotional, and coping), the FSIQ-RMS is a comprehensive, valid, and reliable measure of fatigue-related symptoms and impacts in RMS patients. FIG. 2B depicts a conceptual framework for the FSIQ-RMS.
In some embodiments, the patient-reported outcome questionnaire is the symptom domain of the FSIQ-RMS. The FSIQ-RMS symptom domain (FSIQ-RMS-S) consists of seven items assessing fatigue-related symptoms with a recall period of 24 hours measured on an 11-point numeric rating scale; the standardized symptom domain score ranges from 0 to 100 with a higher score indicating greater fatigue. This domain (i.e., section 1 of the questionnaire) is completed on 7 consecutive days.
The patient-reported outcome questionnaire used for the below Examples is the Fatigue Symptoms and Impact Questionnaire-Relapsing Multiple Sclerosis (FSIQ-RMS). The FSIQ-RMS is an MS specific 20-item PRO measure that comprises 2 domains: one measuring MS symptoms (7 items) and one measuring MS-related impacts (13 items). The 7 symptom items and 13 impact items (in 3 impacts subdomains: physical, cognitive and emotional, and coping) are presented below.
For the MS symptoms domain, the FSIQ-RMS asks about a patient's fatigue-related symptoms of relapsing MS over the past 24 hours while doing routine daily activities (e.g., housework, yard work, shopping, working, etc.) for Items 1-6 or while at rest (e.g., reading a book, watching TV, etc.) for Item 7. Patients are asked to select a response on a scale of Oto 10 that best describes their experience and are asked to not skip any questions, with no answers being right or wrong.
Secondary efficacy variables and testing strategy: Four secondary efficacy endpoints were analyzed as per the statistical testing strategy outlined in FIG. 1. • Change from baseline to Week 108 in fatigue-related symptoms as measured by the symptoms domain of the FSIQ-RMS patient-reported outcome [Fatigue] • Cumulative number of combined unique active lesions from baseline to Week 108 on brain MRI [CUALs] • Time to first 12-week confirmed disability accumulation (CDA) from baseline to EOS on Expanded Disability Status Scale (EDSS) [12-week CDA] • Time to first 24-week CDA from baseline to EOS on EDSS [24-week CDA]
The FSIQ-RMS symptom domain (FSIQ-RMS-S) consists of seven items assessing fatigue-related symptoms with a recall period of 24 hours measured on an 11-point numeric rating scale; the standardized symptom domain score ranges from 0 to 100 with a higher score indicating greater fatigue. This domain (i.e., section 1 of the questionnaire) is completed on 7 consecutive days.
FSIQ-RMS was completed during the pre-randomization period, at Visits 6, 7, 10, and 12 (Weeks 12, 24, 60, 84), 14 (EOT), and at unscheduled visits due to relapses (R1, R2, etc.) or other unscheduled visits (U1, U2, etc.) as described below. If applicable, FSIQ-RMS was performed at the corresponding visits in the PTOP.
The completion of the FSIQ-RMS during the pre-randomization period was done as follows: At Visit 1 (Screening), subjects who appear eligible based on the assessments made during this visit (but prior to the results from the laboratory assessments are received) were provided with the electronic device containing the FSIQ-RMS. […]

[4] = 12-lead ECG heart rate on Day 1, change from pre-dose; format: in vivo, human
Description: As per up-titration regimen, the dose of ponesimod on Day 1 is 2 mg.

[5] = Reasons for premature treatment discontinuation; format: in vivo; details: ponesimod 20 mg, teriflunomide 14 mg
Description: A total of 1468 subjects were screened. Of those, 1133 subjects were randomized (567 to ponesimod 20 mg and 566 to teriflunomide 14 mg) across 162 sites in 28 countries, and 1131 subjects received at least one dose of study drug. The disposition of subjects is summarized in Table 1 and a summary of reasons (primary reason) for treatment discontinuation are shown in Table 2. Overall treatment and study discontinuation were balanced across both treatment arms. A total of 6.5% and 2.5% of the subjects discontinued due to AEs or tolerability related reasons in ponesimod 20 mg and teriflunomide 14 mg, respectively, while 1.9% and 4.3% discontinued due to efficacy related reasons. There were 2 deaths reported during the study—both on teriflunomide 14 mg.

[6] = Treatment-emergent adverse events, Safety Set
Description: A prospective, multicenter, randomized, double-blind, active controlled, parallel-group, phase III, superiority study was conducted.
The Safety Set (SAF) included all randomized subjects who received at least one dose of study treatment. Subjects were analyzed based on actual treatment taken, not randomized treatment.

[7] = patients without Gd+T1 lesions at baseline
[8] = Day 1 (ponesimod dose 2 mg per up-titration), Safety Set, N = 565 / 566
[9] = Safety Set, ponesimod 20 mg N = 565, teriflunomide 14 mg N = 566
[10] = ponesimod 20 mg, teriflunomide 14 mg

## CCCCCCCCc1ccc(CCC(N)(CO)CO)cc1 [fingolimod]
[1]
  ECG HR effect: nadir post-dose: ~6 h

## C/C(O)=C(\C#N)C(=O)Nc1ccc(C(F)(F)F)cc1 [Teriflunomide]
[2]
  Proportion of subjects who experienced ALT increase >3×ULN: 8.3%
  Proportion of subjects who experienced ALT increase >8×ULN: 2.1%
[3]; patients with baseline fatigue below the median
  Change From Baseline to Week 108: Stable or Improved: about 55%
[3]; [7]
  Change From Baseline to Week 108: Stable or Improved: 57.0%
  Change From Baseline to Week 108: Worsened (≥6.3): 43.0%
[3]; patients without Gd+T1 lesions at baseline, listed as teriflunomide
  Change From Baseline to Week 108: Stable or Improved: about 57%
[4]; Day 1, 2-hours post dose, ponesimod arm dose on Day 1 is 2 mg
  Mean heart rate reduction compared to pre-dose (maximum): −1.7 bpm
[4]; Day 1, all had pre-treatment HR<55 bpm
  Subjects with asymptomatic post-dose HR≤40 bpm: none
[5]
  Subjects who discontinued due to AEs or tolerability related reasons: 2.5%
[6]; [8]
  AESI effect on heart rate and rhythm (including hypotension) on Day 1: Subjects with at least one AE: 0.4%
  AESI heart rate and rhythm on Day 1, PT: Atrioventricular block first degree: 0 n
  AESI heart rate and rhythm on Day 1, PT: Bradycardia: 0 n
  AESI heart rate and rhythm on Day 1, PT: Bundle branch block left: 0 n
  AESI heart rate and rhythm on Day 1, PT: Bundle branch block right: 0 n
  AESI heart rate and rhythm on Day 1, PT: Defect conduction intraventricular: 0 n
  AESI heart rate and rhythm on Day 1, PT: Sinus arrhythmia: 0 n
  AESI heart rate and rhythm on Day 1, PT: Sinus bradycardia: 0 n
[6]; [9]
  Subject with at least one AE (treatment-emergent): 88.2%
  Subject with at least one AE leading to study drug discontinuation: 6.0%
  Subject with at least one Serious AE: 8.1%
  TEAEs leading to premature discontinuation of study drug, SOC: Eye disorders: 0 n
  TEAEs leading to premature discontinuation of study drug, SOC: Respiratory, thoracic and mediastinal disorders: 0 n
  TEAEs leading to premature discontinuation of study drug, SOC: Vascular disorders: 0 n
  Treatment-emergent AESI: Hepatobiliary disorders/Liver enzyme abnormality: 14.5%
  Treatment-emergent AESI: Hypertension: 9.0%
  Treatment-emergent AESI: Pulmonary events: 2.7%
[6]; [10]
  TEAE: ALT increased: 9.4%
  TEAE: headache: 12.7%
  TEAE: nasopharyngitis: 16.8%
  TEAE: upper respiratory tract infection: 10.4%

## CCc1cc(/C(C)=N/OCc2ccc(C3CCCCC3)c(C(F)(F)F)c2)ccc1CN1CC(C(=O)O)C1 [siponimod]
[1]
  ECG HR effect: nadir post-dose: 3 to 4 h
